Measured values taken from patent US20110236859A1, “ORAL CARE COMPOSITION CONTAINING OXIDASE ENZYME” (priority 2009, published 2011).

Experiment: Glucose oxidase binding to saliva-coated hydroxyapatite disks (Amplex Red horseradish peroxidase coupled assay)
Protocol: Glucose oxidase binding to saliva coated hydroxyappetite disks is measured using a fluorescent (Amplex Red) horseradish peroxidase coupled assay directly from the disk surface.
Hydroxyapatite (HAP) disks coated with saliva are commonly used as models of a tooth surface.
Saliva was collected from 3-5 donors, clarified by centrifugation, and added to cover HAP disks (5 mm×2.0 mm Clarkson Chromatography) in a covered plastic tray. The disks were incubated with the saliva overnight, with gentle shaking, at room temperature. The disks were rinsed twice with 50 mM phosphate buffer prior to use in the binding assay. Varying concentrations of glucose oxidase (50-650 mU/ml) were added to the saliva-coated HAP disks in the presence of sorbitol (0.8-8%) or polyethyleneimine (1%). The amount of glucose oxidase retained on the hydroxyapatite disks, following three consecutive washes with phosphate buffered saline, was measured using a fluorescence (Amplex Red, Molecular Probes #A22189) horseradish peroxidase coupled assay, as per manufacturer's recommendation.

- binding of glucose oxidase to saliva coated hydroxyapatite disks relative to no additive (FIG. 1, additive sorbitol 8, 0.8, 0.08%, fluorescent Amplex Red HRP coupled assay from disk surface): improve binding relative to no additive
SMILES: OC[C@@H](O)[C@@H](O)[C@H](O)[C@@H](O)CO [sorbitol]
- amount of active glucose oxidase detected on the hydroxyapatite (at least 0.8% sorbitol, glucose oxidase 50-650 mU/ml, after three washes with phosphate buffered saline): increased the amount of active glucose oxidase detected on the hydroxyapatite
